Results published in patent US4965283A, “Amino acid esters, process for the preparation thereof and use thereof” (Dr. Willmar Schwabe GmbH & Co., priority 1987, dated 1990).
Where a name gives a salt, the structure may show the parent alone. Read-outs that look alike come from different tables or passages of the source.

Key:
[1] = tested on: mouse; assay: observation for neurotoxicity symptoms (motility, muscle tonus, respiratory frequency, body temperature, general behaviour); type: in vivo
Protocol: During the experiments described above, the animals were observed during the whole of the experimental period (up to 4 hours) for signs of substance-caused changes of behaviour and neurotoxicity (motility, muscle tonus, respiratory frequency, body temperature and general behaviour).

[2] = tested on: maximum electroshock spasm (MES), extensor spasm in mice; assay: MES test (maximum electroshock; inhibition of extensor spasm); type: in vivo, male mice (NMRI); details: for responders at 50 mg/kg / ED50 / responders at 100 mg/kg: Mus musculus; for ED50: read-out: ED 50 values; for ED 50 values (estimated values): * estimated from several tests with different dosages
Text: For the determination of the anticonvulsive/anti-epileptic activity of the substances according to the present invention the method described by E. A. Swinyard et al., J. Pharmacol. exp. Therapeut. 106, 319-330 (1952) and by L. A. Woodbury et al., Arch. int. Pharmacodyn., 92, 97-107 (1952) was used. To male mice (NMRI) with a body weight of 20-25 g via corneal electrodes, an alternating current of 50 Hz and 50 mA is applied for 0.2 sec. (HSE-shock stimulation apparatus; type 207). The maximum electroshock spasm (MES) consists of a tonic extension of the rear extremities, the clonic twitch and loss of consciousness. The activity criterion is taken as being the inhibition of the extensor spasm by the substances according to the present invention. Before the experiments the mice had free access to feed and water. The test substances were administered orally as suspensions in 0.2% agar by stomach tubes; the control animals received adequate volumes of agar. 1 hour and 3 hours after administration the test for protective action against MES was carried out.
As percentage action the percentage proportion of those animals which in the MES test were protected 100% against the extensor spasm is given. 10 animals were used per test.
The ED 50 values were determined according to Lichtfield and Wilcoxon J. Pharmacol. exp. Therapeut. 96, 99 (1949) in each case with 4 to 5 animal groups each of 8-10 animals per dosage stage.

[3] = tested on: maximum electroshock spasm (MES), extensor spasm in mice; assay: as above; type: in vivo, male mice (NMRI); details: Mus musculus, ip, 1 h, read-out: protective action [%] after 1 hr
[4] = po, 1 h, 50 mg/kg, oral, 1 hr after administration, n = 10, read-out: protective action [%] after 1 hr
[5] = po, 1 h, MES test, oral, 1 hour after administration
[6] = po, 3 h, 50 mg/kg, oral, 3 hrs after administration, n = 10, read-out: protective action [%] after 3 hrs
[7] = 50 mg/kg, oral, 3 hrs after administration, n = 10
[8] = MES test, oral, 1 hour after administration
[9] = 50 mg/kg, oral, 3 hrs after administration, n = 10, hydrochloride
[10] = po, 1 h, 100 mg/kg, oral, 1 hr after administration, n = 10, read-out: protective action [%] after 1 hr
[11] = po, 3 h, 100 mg/kg, oral, 3 hrs after administration, n = 10, read-out: protective action [%] after 3 hrs
[12] = 100 mg/kg, oral, 1 hr after administration, n = 10
[13] = 100 mg/kg, oral, 3 hrs after administration, n = 10

In the case of `CCCC(C)C1(CC)C(=O)NC(=O)NC1=O` (stereo not shown) [pentobarbital], the “Neurotoxic limiting dose in the mouse, dose p.o.” value ([1]; p.o.) is reported as 60 mg/kg.
For `O=C1NC(=O)C(c2ccccc2)(c2ccccc2)N1` [phenytoin, diphenylhydantoin, reference compound], the “Neurotoxic limiting dose in the mouse, dose p.o.” value ([1]; in vivo, po) was 100 mg/kg, the responders at 50 mg/kg [2, 4] was 100% and the ED50 [2, 5] was 9.1 mg/kg. For the same compound, the responders at 50 mg/kg [2, 6] was 100%.
`NC(=O)N1c2ccccc2C=Cc2ccccc21` [carbamazepine, reference compound] was tested, and the “Neurotoxic limiting dose in the mouse, dose p.o.” value ([1]; in vivo, po) was 100 mg/kg, the responders at 50 mg/kg [2, 4] was 100% and the responders at 50 mg/kg [2, 6] was 100%.
For `Br.COC1=CC(=O)OC1C(OC(=O)CN)c1ccccc1Cl` (single isomer, unassigned; (+)) [Example 151, (+)-threo-5-[2-chlorophenyl-(glycyloxy)-methyl]-4-methoxy-2(5H)-furanone hydrobromide], the “protective action [%] after 1 hr” value ([2]; 50 mg/kg, oral, 1 hr after administration, n = 10) was 100%, the “protective action [%] after 3 hrs” value [2, 7] was 100% and the “ED 50 values” [2, 8] was 12.2 mg/kg.
With `COC1=CC(=O)OC1C(OC(=O)[C@@H]1CCCN1)c1ccccc1C(F)(F)F` (single isomer, unassigned) [139 A] the “ED 50 values (estimated values)” value [2, 8] was 15 to 20 mg/kg, the responders at 50 mg/kg [2, 4] was 100% and the responders at 50 mg/kg [2, 6] was 50%.
`COC1=CC(=O)O[C@H]1[C@H](OC(=O)CCCN)c1ccccc1Cl` (relative stereo) [Example 114, threo-5-[4-aminobutanoyloxy-(2-chlorophenyl)-methyl]-4-methoxy-2(5H)-furanone hydrochloride] was tested, and the “protective action [%] after 3 hrs” value [2, 9] was 30% and the ED50 [2, 5] was 40 mg/kg.
Compound `COC1=CC(=O)O[C@H]1[C@H](OC(=O)C1(N)CCCCC1)c1ccccc1Cl` (relative stereo) [Example 157, threo-5-[1-amino-1-cyclohexylcarbonyloxy-(2-chlorophenyl)-methyl]-4-methoxy-2(5H)-furanone hydrobromide] has a responders at 100 mg/kg [2, 10] of 100%, an ED50 [2, 5] of 27.5 mg/kg and a responders at 100 mg/kg [2, 11] of 40%.
For `COC1=CC(=O)OC1C(OC(=O)[C@@H]1CCC(=O)N1)c1ccccc1Cl` (single isomer, unassigned) [125 A], the responders at 50 mg/kg [2, 4] was 100% and the responders at 50 mg/kg [2, 6] was 80%.
With `COC1=CC(=O)OC1C(OC(=O)[C@@H](N)c1ccccc1)c1ccccc1Cl` (single isomer, unassigned) [117 A] the “protective action [%] after 3 hrs” value [2, 7] was 100%, the responders at 50 mg/kg [2, 4] was 100% and the ED50 [2, 5] was 16 mg/kg.
With `COC1=CC(=O)O[C@H]1[C@H](OC(=O)CN)c1ccccc1Cl` (relative stereo) [Example 112, threo-5-[2-chlorophenyl-glycyloxy)methyl-4-methoxy-2(5H)-furanone hydrochloride] the “protective action [%] after 3 hrs” value [2, 9] was 70% and the “ED 50 values” ([2]; MES test, oral, 1 hour after administration, hydrochloride, 60 min) was 22.2 mg/kg.
`COC1=CC(=O)O[C@H]1[C@H](OC(=O)CNC(C)=O)c1ccccc1Cl` (relative stereo) [Example 106, threo-5-[N-acetylglycyloxy-(2-chlorophenyl)-methyl]-4-methoxy-2(5H)-furanone] showed a responders at 50 mg/kg [2, 4] of 100%, an ED50 [2, 5] of 23.1 mg/kg and a responders at 50 mg/kg [2, 6] of 70%.
With `CCCC(CCC)C(=O)O` [valproic acid, reference compound] the “Neurotoxic limiting dose in the mouse, dose p.o.” value ([1]; p.o.) was 350 mg/kg, the responders at 100 mg/kg [3] was 0% and the ED50 ([2]; ip, 1 h) was 205 mg/kg. For the same compound, the responders at 100 mg/kg ([2]; ip, 3 h, read-out: protective action [%] after 3 hrs) was 0%.
In the case of `CCC1(C)CC(=O)NC1=O` (stereo not shown) [ethosuximide, reference compound], the “Neurotoxic limiting dose in the mouse, dose p.o.” value ([1]; in vivo, po) is reported as 500 mg/kg, the responders at 100 mg/kg [2, 10] is reported as 0% and the responders at 100 mg/kg [2, 11] is reported as 0%. It also gave an ED50 ([2]; po, 4 h, MES test, oral, ** 4 hours after administration) of over 250 mg/kg.
In the case of `Br.COC1=CC(=O)OC1C(OC(=O)CN)c1ccccc1Cl` (single isomer, unassigned; (-)) [Example 153], the “protective action [%] after 1 hr” value [2, 12] is reported as 40% and the “protective action [%] after 3 hrs” value [2, 13] is reported as 0%.
For `CCC1(c2ccccc2)C(=O)NC(=O)NC1=O` [phenobarbital, reference compound], the “Neurotoxic limiting dose in the mouse, dose p.o.” value ([1]; p.o.) was 60 mg/kg, the ED50 ([2]; po, 1 h) was 19.2 mg/kg and the responders at 100 mg/kg ([2]; po, 1 h, read-out: protective action [%] after 1 hr) was 100%. For the same compound, the responders at 100 mg/kg ([2]; po, 3 h, read-out: protective action [%] after 3 hrs) was 100%.
For `COC1=CC(=O)OC1C(OC(=O)[C@@H]1CCCN1)c1ccccc1F` (single isomer, unassigned) [129 A], the “protective action [%] after 1 hr” value [2, 12] was 100%, the “protective action [%] after 3 hrs” value [2, 13] was 100% and the “ED 50 values (estimated values)” value [2, 8] was 40 to 50 mg/kg.
`COC1=CC(=O)OC1C(OC(=O)[C@@H](N)c1ccccc1)c1ccccc1` (single isomer, unassigned) [108 A] was tested, and the “ED 50 values (estimated values)” value [2, 8] was 70 to 80 mg/kg, the responders at 100 mg/kg [2, 10] was 90% and the responders at 100 mg/kg [2, 11] was 0%.
Compound `COC1=CC(=O)O[C@@H]1[C@@H](OC(=O)[C@@H]1CCCN1)c1ccccc1Cl` [104 A] has a responders at 50 mg/kg [2, 4] of 100% and a responders at 50 mg/kg [2, 6] of 100%.
Compound `COC1=CC(=O)OC1C(OC(=O)[C@@H]1CCCN1)c1ccccc1Br` (single isomer, unassigned) [127 A] has a responders at 50 mg/kg [2, 4] of 100% and a responders at 50 mg/kg [2, 6] of 100%.
Work on `COC1=CC(=O)OC1C(OC(=O)[C@@H]1CCCN1C(=O)OCc1ccccc1)c1ccccc1C(F)(F)F` (single isomer, unassigned) [138 A] yielded a responders at 100 mg/kg [2, 10] of 30% and a responders at 100 mg/kg [2, 11] of 20%.
